Patent US7285543B2, “Purine inhibitors of fructose-1,6-bisphosphatase” (Metabasis Therapeutics, Inc., priority 1997, dated 2007)
pEC50, pIC50: −log10 of the molar value.

How the values were obtained:
[1] = test system: rat hepatocytes; assay: Inhibition of gluconeogenesis (glucose production from lactate/pyruvate) in rat hepatocytes; type: cell-based; details: Hepatocyte; from lactate/pyruvate, isolated rat hepatocytes
Description: Hepatocytes were prepared from overnight fasted Sprague-Dawley rats (250-300 g) according to the procedure of Berry and Friend (Berry, M. N., Friend, D. S., J. Cell. Biol. 1969, 43, 506-520) as modified by Groen (Groen, […]., Eur. J. Biochem. 1982, 122, 87-93). […] Incubations were carried out in a 95% oxygen, 5% carbon dioxide atmosphere in closed, 50-mL Falcon tubes submerged in a rapidly shaking water bath (37° C.). After 1 hour, an aliquot (0.25 mL) was removed, transferred to an Eppendorf tube and centrifuged. 50 μl of supernatant was then assayed for glucose content using a Sigma Glucose Oxidase kit as per the manufacturer's instructions.

[2] = biological target: T1, Human adenosine kinase (Homo sapiens, UniProt P55263); assay: AMP site/enzyme selectivity: adenosine kinase; type: biochemical; details: selectivity table; read-out: Adenosine Kinase (inh.)
T1 construct: made in house; host or cells: E. coli

[3] = biological target: T2, rat liver FBPase (Rattus norvegicus, UniProt P19112); assay: In vitro inhibition of rat liver FBPase; type: biochemical
T2 construct: made in house; host or cells: E. coli BL21
T2 sequence (P19112 2-363 limits assumed): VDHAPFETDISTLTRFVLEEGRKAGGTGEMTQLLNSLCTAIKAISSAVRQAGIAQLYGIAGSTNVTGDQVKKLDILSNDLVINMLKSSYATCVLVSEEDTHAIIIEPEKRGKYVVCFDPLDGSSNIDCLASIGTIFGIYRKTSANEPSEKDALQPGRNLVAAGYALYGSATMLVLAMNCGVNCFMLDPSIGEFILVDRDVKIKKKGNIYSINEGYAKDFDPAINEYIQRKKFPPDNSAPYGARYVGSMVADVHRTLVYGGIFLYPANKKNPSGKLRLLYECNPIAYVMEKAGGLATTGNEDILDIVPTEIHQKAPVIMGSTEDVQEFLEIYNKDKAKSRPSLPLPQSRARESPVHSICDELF
Description: (§1) Mouse liver FBPase was obtained by homogenizing freshly isolated mouse liver in 100 mM Tris-HCl buffer, pH 7.4, containing 1 mM EGTA, and 10% glycerol. […] This fraction was redissolved in the homogenization buffer and desalted on a PD-10 gel filtration column (Biorad) eluted with same. This partially purified fraction was used for enzyme assays. Both rat liver and mouse liver FBPase were assayed as described for human liver FBPase.

[4] = biological target: T3, Glycogen Phosphorylase (rabbit muscle) (Oryctolagus cuniculus, UniProt P00489); assay: AMP site/enzyme selectivity: glycogen phosphorylase
T3 sequence (P00489 2-843 limits assumed): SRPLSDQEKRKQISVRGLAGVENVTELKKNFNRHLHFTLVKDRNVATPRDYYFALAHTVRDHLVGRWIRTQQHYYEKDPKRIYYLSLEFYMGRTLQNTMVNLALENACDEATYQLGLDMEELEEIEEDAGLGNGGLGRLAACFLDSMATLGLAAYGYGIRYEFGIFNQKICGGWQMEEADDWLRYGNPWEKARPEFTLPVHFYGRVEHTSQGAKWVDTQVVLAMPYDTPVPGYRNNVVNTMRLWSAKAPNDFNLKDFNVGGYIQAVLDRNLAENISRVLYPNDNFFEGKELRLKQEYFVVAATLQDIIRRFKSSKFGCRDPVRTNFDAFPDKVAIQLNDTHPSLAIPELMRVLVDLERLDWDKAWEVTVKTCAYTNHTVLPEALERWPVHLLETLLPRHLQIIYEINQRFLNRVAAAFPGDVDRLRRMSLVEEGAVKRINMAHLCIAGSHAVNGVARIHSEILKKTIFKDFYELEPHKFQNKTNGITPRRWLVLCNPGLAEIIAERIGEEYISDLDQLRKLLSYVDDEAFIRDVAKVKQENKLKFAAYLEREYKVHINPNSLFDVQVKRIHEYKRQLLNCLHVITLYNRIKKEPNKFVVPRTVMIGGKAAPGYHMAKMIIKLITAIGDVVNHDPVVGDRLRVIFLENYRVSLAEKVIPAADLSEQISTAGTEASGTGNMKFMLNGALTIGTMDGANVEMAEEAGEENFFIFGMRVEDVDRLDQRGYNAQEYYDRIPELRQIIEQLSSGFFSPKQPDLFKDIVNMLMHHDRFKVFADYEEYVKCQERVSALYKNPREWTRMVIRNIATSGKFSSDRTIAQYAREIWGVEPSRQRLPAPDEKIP
Description: To determine the selectivity of compounds towards FBPase, effects of FBPase inhibitors on 5 key AMP binding enzymes were measured using the assays described below: • Adenosine Kinase: Human adenosine kinase was purified from an E. coli expression system as described by Spychala et al. (Spychala, J., Datta, N. S., Takabayashi, K., Datta, M., Fox, I. H., Gribbin, T., and Mitchell, B. S. Proc. Natl. Acad. Sci. USA 1996, 93, 1232-1237). Activity was measured essentially as described by Yamada et al. (Yamada, Y., Goto, H., Ogasawara, N. Biochim. Biophys. Acta 1988, 660, 36-43.) with a few minor modifications. Assay mixtures contained 50 mM TRIS-maleate buffer, pH 7.0, 0.1% BSA, 1 mM ATP 1 mM MgCl2, 1.0 μM [U-^14C] adenosine (400-600 mCi/mmol) and varying duplicate concentrations of inhibitor. ^14C-AMP was separated from unreacted ^14C-adenosine by absorption to anion exchange paper (Whatman) and quantified by scintillation counting. • Adenosine Monophosphate Deaminase: Porcine heart AMPDA was purified essentially as described by Smiley et al. (Smiley, K. L., Jr, Berry, A. J., and Suelter, C. H. J. Biol. Chem. 1967, 242, 2502-2506) through the phosphocellulose step. Inhibition of AMPDA activity was determined at 37° C. in a 0.1 mL assay mixture containing inhibitor, ˜0.005U AMPDA, 0.1% bovine serum albumin, 10 mM ATP, 250 mM KCl, and 50 mM MOPS at pH 6.5. […]

[5] = biological target: T4, mouse liver FBPase (Mus musculus, UniProt Q9QXD6); assay: In vitro inhibition of mouse liver FBPase; type: biochemical
T4 construct: This partially purified fraction was used for enzyme assays; from tissue; host or cells: mouse liver
T4 sequence (Q9QXD6 2-338 limits assumed): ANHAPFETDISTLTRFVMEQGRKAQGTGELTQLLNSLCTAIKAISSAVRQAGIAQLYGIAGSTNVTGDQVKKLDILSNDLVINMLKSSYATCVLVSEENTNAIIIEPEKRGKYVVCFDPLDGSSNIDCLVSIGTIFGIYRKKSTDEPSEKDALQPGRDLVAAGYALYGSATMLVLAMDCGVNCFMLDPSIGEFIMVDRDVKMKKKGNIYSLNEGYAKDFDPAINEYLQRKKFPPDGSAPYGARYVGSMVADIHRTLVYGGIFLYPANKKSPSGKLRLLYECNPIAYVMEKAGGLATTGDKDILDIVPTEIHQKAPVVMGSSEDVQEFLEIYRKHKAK
Description: as §1

[6] = biological target: T5, Adenylate Kinase (rabbit muscle) (Oryctolagus cuniculus, UniProt P00569); assay: AMP site/enzyme selectivity: adenylate kinase; type: biochemical; details: selectivity table; read-out: Adenylate Kinase (inh.)
T5 construct: purchased Sigma
T5 sequence (P00569 1-194): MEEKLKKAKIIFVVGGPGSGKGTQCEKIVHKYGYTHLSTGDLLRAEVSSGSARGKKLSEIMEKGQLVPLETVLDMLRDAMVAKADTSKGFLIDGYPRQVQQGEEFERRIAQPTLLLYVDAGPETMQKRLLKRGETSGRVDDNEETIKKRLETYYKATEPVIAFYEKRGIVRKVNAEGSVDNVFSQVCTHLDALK

[7] = biological target: T6, human liver FBPase (Homo sapiens, UniProt P09467); assay: Inhibition of human liver FBPase (coupled spectrophotometric assay); type: biochemical
T6 construct: made in house; host or cells: E. coli BL21
T6 sequence (P09467 2-338 limits assumed): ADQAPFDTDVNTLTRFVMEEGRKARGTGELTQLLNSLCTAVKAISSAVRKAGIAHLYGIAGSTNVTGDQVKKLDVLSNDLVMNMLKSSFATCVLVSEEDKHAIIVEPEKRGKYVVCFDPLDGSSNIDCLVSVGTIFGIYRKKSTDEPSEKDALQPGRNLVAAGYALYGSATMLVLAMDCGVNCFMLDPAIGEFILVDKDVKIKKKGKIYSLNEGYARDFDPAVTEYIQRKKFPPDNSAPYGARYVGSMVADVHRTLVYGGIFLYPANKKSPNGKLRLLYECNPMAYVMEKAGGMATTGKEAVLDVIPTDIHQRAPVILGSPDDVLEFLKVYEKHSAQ

T1 sequence (P55263 1-345 isoform P55263-2): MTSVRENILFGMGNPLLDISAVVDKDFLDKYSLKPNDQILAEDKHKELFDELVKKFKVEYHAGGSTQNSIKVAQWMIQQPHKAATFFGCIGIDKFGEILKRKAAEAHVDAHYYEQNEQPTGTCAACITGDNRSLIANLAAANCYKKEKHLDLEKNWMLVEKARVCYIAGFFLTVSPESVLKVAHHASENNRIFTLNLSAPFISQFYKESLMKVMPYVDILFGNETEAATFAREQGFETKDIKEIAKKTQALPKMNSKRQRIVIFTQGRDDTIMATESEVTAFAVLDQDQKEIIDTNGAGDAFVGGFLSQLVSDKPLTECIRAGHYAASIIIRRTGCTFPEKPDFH

pIC50 [2]: < 5.00
pIC50 [3]: 4.00
pEC50 [4]: < 3.60
pIC50 [5]: < 4.70
pIC50 [6]: < 3.30
pIC50 [7]: 5.30
SMILES: Nc1ncnc2c1nc(-c1ccc(P(=O)(O)O)o1)n2CCc1ccccc1 [Compound 2.1, N^9-(2-phenethyl)-8-(2-(5-phosphono)furanyl)adenine]
pIC50 [1]: 4.05
